Here are results for 4 compounds from ChEMBL document CHEMBL1157399, “Antioxidant 2-phenylbenzofurans and a coumestan from Lespedeza virgata” (J Nat Prod, 2008).

Assay [1] has as its system Plasma. Briefly: Inhibition of lipid peroxidation in renal failured rat plasma assessed as inhibition of malondialdehyde level by TBARS assay. Type of assay: functional, cell-free.
Assay [2] in a line: Antioxidant activity assessed as oxygen radical scavenging activity by ORAC-fluorescence assay. Format: functional.
Assay [3] deals with Kidney. The assay is described as follows: Inhibition of lipid peroxidation in renal failured rat kidney homogenate assessed as inhibition of malondialdehyde level by TBARS assay. Type of assay: functional, tissue-based.
Assay [4] is described as follows: Antioxidant activity against 2,2'-azobis (2-amidinopropane) dihydrochloride-induced fluorescence decay at 1.5 uM assessed as trolox equivalents by ORAC-fluorescence assay. Format: functional.

`COc1c(CCC(C)(C)O)c(O)cc2oc(=O)c3c4cc(O)c(O)cc4oc3c12` [LESPEDEZACOUMESTAN]: the IC50 stood at 190 µM in assay [1] and 450 µM in assay [3]. Moreover, the Activity entry in assay [2] is “Dose-dependent effect”; in assay [4] it was 450.
In the case of `COc1cc(OC)c(-c2oc3cc(O)c(O)cc3c2C=O)c(OC)c1` [LESPEDEZAVIRGATAL], the IC50 was determined as 750 µM in assay [1] and 640 µM in assay [3]. In addition, the Activity entry in assay [2] is “Dose-dependent effect”; in assay [4] it was 189.
For the compound `O=C1O[C@H]([C@@H](O)CO)C(O)=C1O` [ASCORBIC ACID], the IC50 in assay [1] turned out to be 5540 µM; in assay [3], 3050 µM. Further, the Activity entry in assay [2] is “Dose-dependent effect”; in assay [4], 165.
`COc1ccc(O)c(-c2cc3ccc(O)c(OC)c3o2)c1OC` [LESPEDEZAVIRGATOL]: the values for the IC50 in assay [1] and in assay [3] were 180 µM and 160 µM, respectively. The figures for the Activity entry in assay [2] and in assay [4] were “Dose-dependent effect” and 763, respectively.

The IC50 is the midpoint of a concentration-inhibition curve.
